Consider two compounds from patent US20240343707A1, “SUBSTITUTED PHENYL ETHYNYL PYRIMIDINES AS POTENT INHIBITORS OF ALPHAVIRUSES” (Southern Research Institute, priority 2023, published 2024).

As usually defined, the EC90 is the concentration needed for an effect of 90%. Broadly, the EC50 is the concentration at which the effect is half-maximal. A word on the CC50: it is the concentration at which the toxic effect on the cells reaches its halfway point.

SMILES strings stand for the structures.

Type in all cases: cell-based
Data set [1] relates to CHIKV. The data set is described as follows: CHIKV virus titer reduction (VTR) assay in NHDF cells. The conditions noted are these: Chikungunya virus, read-out: CHIKV EC90 (μM).
The test system of data set [2] is CHIKV. The data set is described as follows: microbe, parasite or virus in culture. The conditions noted are these: Chikungunya virus, read-out: CHIK EC50 (μM).
The subject of another data set is VEEV. The data set is described as follows: microbe, parasite or virus in culture. The conditions noted are these: Venezuelan equine encephalitis virus, NHDF, read-out: VEEV EC90 (μM).
A further data set has as its system VEEV (TC-83). The data set is described as follows: microbe, parasite or virus in culture. To be noted: Venezuelan equine encephalitis virus, read-out: VEEV EC50 (μM).
The next data set in a line: in vitro. To be noted: human.

As for `O=C(Nc1ccc2c(c1)CCCC2)c1cccc(C#Cc2ncccn2)c1` [Compound 22, 3-(2-pyrimidin-2-ylethynyl)-N-tetralin-6-yl-benzamide], the EC90 in the data set on CHIKV [1] and in the data set with VEEV was 0.7 µM in each case. The EC50 is 0.83 µM in the data set on CHIKV [2] and 1.26 µM in the data set on VEEV (TC-83). For the same compound, the CC50 in “in vitro” is > 40000 nM.

Regarding `O=C(Nc1ccc(C(F)(F)F)cc1)c1cccc(C#Cc2ncccn2)c1` [Compound 23, 3-(2-pyrimidin-2-ylethynyl)-N-[4-(trifluoromethyl)phenyl]benzamide], the EC90 in the data set with CHIKV [1] amounted to 0.85 µM; with VEEV it was 0.82 µM. Besides, the EC50 stood at 1.2 µM in the data set on CHIKV [2] and 0.71 µM in the data set on VEEV (TC-83). In addition, the CC50 in “in vitro” is > 40000 nM.
